Results reported in patent US12258327B2, “5-membered heteroaryl-containing aminopyridine compounds as EGFR inhibitors” (YUHAN CORPORATION, priority 2021, dated 2025).
Like-named read-outs stand apart in the source and are kept apart here.

How the values were obtained:
EGFR del19/T790M/C797S = EGFR del19/T790M/C797S (Homo sapiens, UniProt P00533, C797S/DEL746-750/T790M); assay: Biochemical EGFR kinase assay (Lance Ultra TR-FRET), triple mutant del19/T790M/C797S
Procedure, shortened: (§1)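 Enzyme reactions lasted 1 hour at room temperature with test compounds between 0.003 and 10 μM, followed by 10 mM EDTA quench.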

EGFR L858R/T790M/C797S = EGFR L858R/T790M/C797S (Homo sapiens, UniProt P00533, C797S/L858R/T790M); assay: Biochemical EGFR kinase assay (Lance Ultra TR-FRET), triple mutant L858R/T790M/C797S
Procedure, shortened: as §1

EGFR del19/C797S = EGFR del19/C797S (Homo sapiens, UniProt P00533, C797S/DEL746-750); assay: Biochemical EGFR kinase assay (Lance Ultra TR-FRET), double mutant del19/C797S
EGFR del19/C797S, sequence (P00533 with tags, fused parts or gaps DEL746-750/C797S): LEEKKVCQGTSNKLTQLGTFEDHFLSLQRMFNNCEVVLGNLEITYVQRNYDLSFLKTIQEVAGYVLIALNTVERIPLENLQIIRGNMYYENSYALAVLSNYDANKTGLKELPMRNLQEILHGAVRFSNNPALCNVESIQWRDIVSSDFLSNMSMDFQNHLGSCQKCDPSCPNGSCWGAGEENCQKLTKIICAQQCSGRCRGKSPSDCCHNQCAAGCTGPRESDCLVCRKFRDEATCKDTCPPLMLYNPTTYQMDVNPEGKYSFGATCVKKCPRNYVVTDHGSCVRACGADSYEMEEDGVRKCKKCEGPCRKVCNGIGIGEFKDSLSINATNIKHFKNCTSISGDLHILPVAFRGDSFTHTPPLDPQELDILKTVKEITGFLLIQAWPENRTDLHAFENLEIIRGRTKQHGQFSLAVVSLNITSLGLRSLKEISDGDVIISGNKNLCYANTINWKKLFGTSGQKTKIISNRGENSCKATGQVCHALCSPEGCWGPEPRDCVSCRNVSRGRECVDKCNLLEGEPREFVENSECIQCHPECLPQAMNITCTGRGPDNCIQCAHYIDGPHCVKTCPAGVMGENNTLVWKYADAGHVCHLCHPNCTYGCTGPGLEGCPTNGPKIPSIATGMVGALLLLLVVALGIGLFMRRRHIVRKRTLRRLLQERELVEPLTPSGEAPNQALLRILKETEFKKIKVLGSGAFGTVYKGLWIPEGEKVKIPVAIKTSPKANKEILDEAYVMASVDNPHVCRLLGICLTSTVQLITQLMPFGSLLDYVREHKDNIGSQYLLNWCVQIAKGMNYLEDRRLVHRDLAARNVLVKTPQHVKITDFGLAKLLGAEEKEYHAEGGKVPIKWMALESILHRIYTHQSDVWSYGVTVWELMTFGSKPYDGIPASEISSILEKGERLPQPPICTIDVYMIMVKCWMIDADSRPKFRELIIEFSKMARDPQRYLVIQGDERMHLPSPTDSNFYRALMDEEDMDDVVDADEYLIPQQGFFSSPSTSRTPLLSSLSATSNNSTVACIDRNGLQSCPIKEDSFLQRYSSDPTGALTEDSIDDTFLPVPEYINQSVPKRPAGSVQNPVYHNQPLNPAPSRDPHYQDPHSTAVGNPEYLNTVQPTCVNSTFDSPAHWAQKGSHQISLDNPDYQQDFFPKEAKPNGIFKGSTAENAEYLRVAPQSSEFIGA
Procedure, shortened: as §1

EGFR L858R/C797S = EGFR L858R/C797S (Homo sapiens, UniProt P00533, C797S/L858R); assay: Biochemical EGFR kinase assay (Lance Ultra TR-FRET), double mutant L858R/C797S
EGFR L858R/C797S, sequence (P00533 25-1210 C797S/L858R): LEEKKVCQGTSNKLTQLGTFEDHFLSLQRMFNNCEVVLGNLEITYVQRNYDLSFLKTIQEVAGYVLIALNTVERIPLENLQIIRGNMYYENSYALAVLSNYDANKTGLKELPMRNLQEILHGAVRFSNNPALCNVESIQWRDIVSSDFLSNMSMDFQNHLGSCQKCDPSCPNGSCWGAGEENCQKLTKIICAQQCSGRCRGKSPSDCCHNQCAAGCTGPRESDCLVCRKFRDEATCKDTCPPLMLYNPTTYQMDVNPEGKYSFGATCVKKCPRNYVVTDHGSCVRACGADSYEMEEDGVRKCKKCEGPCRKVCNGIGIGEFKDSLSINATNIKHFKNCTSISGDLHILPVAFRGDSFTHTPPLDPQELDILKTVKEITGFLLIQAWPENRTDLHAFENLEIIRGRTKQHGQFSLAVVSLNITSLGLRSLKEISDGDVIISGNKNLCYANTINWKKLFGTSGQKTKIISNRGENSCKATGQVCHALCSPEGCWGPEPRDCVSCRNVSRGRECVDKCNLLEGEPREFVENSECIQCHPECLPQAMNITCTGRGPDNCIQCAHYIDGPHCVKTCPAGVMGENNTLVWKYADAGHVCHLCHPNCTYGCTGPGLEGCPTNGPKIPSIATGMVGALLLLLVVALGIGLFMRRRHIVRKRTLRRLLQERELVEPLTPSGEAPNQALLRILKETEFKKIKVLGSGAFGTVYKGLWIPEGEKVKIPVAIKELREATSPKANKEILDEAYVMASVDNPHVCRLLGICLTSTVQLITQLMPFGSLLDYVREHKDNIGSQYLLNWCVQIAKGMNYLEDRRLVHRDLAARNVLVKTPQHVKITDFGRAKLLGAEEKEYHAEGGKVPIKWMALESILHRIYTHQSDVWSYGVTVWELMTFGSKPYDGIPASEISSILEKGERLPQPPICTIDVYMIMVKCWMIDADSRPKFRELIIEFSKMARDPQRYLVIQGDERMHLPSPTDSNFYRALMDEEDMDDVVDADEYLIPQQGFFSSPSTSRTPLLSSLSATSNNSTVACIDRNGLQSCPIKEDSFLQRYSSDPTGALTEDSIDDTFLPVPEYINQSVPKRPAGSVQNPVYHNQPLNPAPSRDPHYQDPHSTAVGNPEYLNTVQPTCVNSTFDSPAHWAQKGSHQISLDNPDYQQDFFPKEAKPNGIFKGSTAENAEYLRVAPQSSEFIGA
Procedure, shortened: as §1

EGFR wildtype (WT) = EGFR wildtype (WT) (Homo sapiens, UniProt P00533); assay: Biochemical EGFR kinase assay (Lance Ultra TR-FRET), wildtype
EGFR wildtype (WT), sequence (P00533 25-1210): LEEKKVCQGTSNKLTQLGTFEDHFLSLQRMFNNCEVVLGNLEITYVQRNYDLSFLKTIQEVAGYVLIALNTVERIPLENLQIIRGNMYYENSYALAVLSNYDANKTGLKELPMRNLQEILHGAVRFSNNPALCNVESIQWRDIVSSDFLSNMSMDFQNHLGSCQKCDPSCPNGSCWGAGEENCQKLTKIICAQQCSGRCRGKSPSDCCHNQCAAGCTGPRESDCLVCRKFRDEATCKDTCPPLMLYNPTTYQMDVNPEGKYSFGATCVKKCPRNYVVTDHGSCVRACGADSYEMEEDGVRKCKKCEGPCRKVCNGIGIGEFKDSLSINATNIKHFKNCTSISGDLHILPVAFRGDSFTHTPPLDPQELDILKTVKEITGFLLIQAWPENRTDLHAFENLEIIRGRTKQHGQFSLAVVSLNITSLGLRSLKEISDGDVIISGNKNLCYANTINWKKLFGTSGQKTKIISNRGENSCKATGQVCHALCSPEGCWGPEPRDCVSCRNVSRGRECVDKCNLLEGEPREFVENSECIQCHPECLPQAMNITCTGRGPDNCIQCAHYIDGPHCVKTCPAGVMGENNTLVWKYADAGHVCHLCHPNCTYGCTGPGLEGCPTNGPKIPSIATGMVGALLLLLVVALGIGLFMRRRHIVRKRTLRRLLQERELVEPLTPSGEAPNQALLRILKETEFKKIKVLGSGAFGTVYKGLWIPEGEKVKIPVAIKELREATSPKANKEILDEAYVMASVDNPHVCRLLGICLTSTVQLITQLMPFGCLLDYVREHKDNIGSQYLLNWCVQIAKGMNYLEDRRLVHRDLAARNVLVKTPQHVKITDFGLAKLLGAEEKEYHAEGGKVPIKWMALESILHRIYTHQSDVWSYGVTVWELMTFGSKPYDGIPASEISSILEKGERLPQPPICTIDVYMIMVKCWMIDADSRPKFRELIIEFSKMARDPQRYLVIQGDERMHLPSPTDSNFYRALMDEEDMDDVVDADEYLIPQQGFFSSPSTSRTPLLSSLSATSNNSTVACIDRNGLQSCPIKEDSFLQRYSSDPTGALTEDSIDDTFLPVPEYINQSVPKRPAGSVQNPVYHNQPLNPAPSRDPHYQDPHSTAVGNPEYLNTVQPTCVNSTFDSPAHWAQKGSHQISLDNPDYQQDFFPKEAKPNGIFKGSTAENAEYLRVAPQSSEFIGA
Procedure, shortened: as §1

[1] = Km ATP, read-out: IC50 del19/T790M/C797S, Km ATP
[2] = Km ATP, read-out: IC50 L858R/T790M/C797S, Km ATP
[3] = Km ATP, read-out: IC50 del19/C797S, Km ATP
[4] = Km ATP, read-out: IC50 L858R/C797S, Km ATP
[5] = Km ATP, read-out: IC50 WT, Km ATP
[6] = IC50 del19/T790M/C797S (nM) 100 μM ATP, 100 μM ATP
[7] = IC50 L858R/T790M/C797S (nM) 100 μM ATP, 100 μM ATP
[8] = IC50 del19/C797S (nM) 100 μM ATP, 100 μM ATP
[9] = IC50 L858R/C797S (nM) 100 μM ATP, 100 μM ATP
[10] = IC50 WT (nM) 100 μM ATP, 100 μM ATP
[11] = Km ATP, read-out: IC50 del19/T790M/C797S (nM) Km ATP
[12] = Km ATP, read-out: IC50 L858R/T790M/C797S (nM) Km ATP
[13] = Km ATP, read-out: IC50 del19/C797S (nM) Km ATP
[14] = Km ATP, read-out: IC50 L858R/C797S (nM) Km ATP
[15] = Km ATP, read-out: IC50 WT (nM) Km ATP

EGFR del19/T790M/C797S, sequence (P00533 with tags, fused parts or gaps DEL746-750/T790M/C797S): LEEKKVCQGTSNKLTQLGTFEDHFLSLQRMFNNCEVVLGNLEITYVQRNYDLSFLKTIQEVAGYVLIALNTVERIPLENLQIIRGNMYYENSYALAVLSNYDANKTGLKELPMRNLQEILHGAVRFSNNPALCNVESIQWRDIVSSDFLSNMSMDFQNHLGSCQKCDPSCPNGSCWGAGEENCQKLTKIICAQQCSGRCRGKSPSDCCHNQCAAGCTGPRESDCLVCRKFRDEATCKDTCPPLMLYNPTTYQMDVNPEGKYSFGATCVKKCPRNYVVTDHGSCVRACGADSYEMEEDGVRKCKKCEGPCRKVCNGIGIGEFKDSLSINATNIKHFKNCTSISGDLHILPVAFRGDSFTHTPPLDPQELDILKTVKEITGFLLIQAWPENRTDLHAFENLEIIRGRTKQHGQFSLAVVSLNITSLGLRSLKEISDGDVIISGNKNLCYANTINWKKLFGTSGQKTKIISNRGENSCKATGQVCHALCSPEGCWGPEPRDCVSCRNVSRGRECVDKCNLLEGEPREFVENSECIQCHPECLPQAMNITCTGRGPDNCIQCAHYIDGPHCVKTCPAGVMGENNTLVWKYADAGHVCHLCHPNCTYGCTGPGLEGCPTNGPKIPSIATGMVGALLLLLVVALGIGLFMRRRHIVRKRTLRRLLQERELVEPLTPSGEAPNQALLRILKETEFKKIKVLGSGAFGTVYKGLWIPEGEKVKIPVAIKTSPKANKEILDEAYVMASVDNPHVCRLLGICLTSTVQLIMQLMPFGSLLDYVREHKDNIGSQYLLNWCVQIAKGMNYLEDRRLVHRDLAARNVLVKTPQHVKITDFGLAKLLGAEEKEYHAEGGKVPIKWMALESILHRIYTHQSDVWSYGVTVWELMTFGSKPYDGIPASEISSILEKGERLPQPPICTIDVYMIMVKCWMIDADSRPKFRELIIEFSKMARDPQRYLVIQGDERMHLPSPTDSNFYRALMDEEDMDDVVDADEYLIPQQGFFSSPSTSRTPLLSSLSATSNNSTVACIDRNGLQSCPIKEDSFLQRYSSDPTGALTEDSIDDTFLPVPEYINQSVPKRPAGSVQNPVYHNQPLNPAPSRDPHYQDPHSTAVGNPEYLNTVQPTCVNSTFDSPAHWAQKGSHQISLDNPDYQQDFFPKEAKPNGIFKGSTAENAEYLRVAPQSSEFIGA

Compound	IC50 (EGFR del19/T790M/C797S; [6]) [nM]	IC50 (EGFR L858R/T790M/C797S; [7]) [nM]	IC50 (EGFR del19/C797S; [8]) [nM]	IC50 (EGFR L858R/C797S; [9]) [nM]	IC50 (EGFR wildtype (WT); [10]) [nM]	IC50 (EGFR del19/T790M/C797S; [11]) [nM]	IC50 (EGFR L858R/T790M/C797S; [12]) [nM]	IC50 (EGFR del19/C797S; [13]) [nM]	IC50 (EGFR L858R/C797S; [14]) [nM]	IC50 (EGFR wildtype (WT); [15]) [nM]	other results
O=S(=O)(C1CC1)n1cc(-c2cc(Nc3ncc(-c4ccn(CCC(F)(F)F)n4)c(N[C@H]4CC[C@@H](F)CC4)n3)ccn2)cn1 [Example 367, N^2-(2-(1-(Cyclopropylsulfonyl)-1H-pyrazol-4-yl)pyridin-4-yl)-N^4-((1s,4s)-4-fluorocyclohexyl)-5-(1-(3,3,3-trifluoropropyl)-1H-pyrazol-3-yl)pyrimidine-2,4-diamine]	–	–	–	–	–	–	–	–	–	–	IC50 (EGFR del19/T790M/C797S; [1]): 17.1 nM; IC50 (EGFR L858R/T790M/C797S; [2]): 7.2 nM; IC50 (EGFR del19/C797S; [3]): 391 nM; IC50 (EGFR L858R/C797S; [4]): 251 nM; IC50 (EGFR wildtype (WT); [5]): 5000 nM
CN[C@H]1CC[C@@H](Oc2cc(Nc3ccnc(-c4cnn(S(=O)(=O)C5CC5)c4)n3)ncc2-c2cnn(C(F)F)c2)CC1 [Example 69, 2-(1-(Cyclopropylsulfonyl)-1H-pyrazol-4-yl)-N-(5-(1-(difluoromethyl)-1H-pyrazol-4-yl)-4-(((1s,4s)-4-(methylamino)cyclohexyl)oxy)pyridin-2-yl)pyrimidin-4-amine]	0.5	1.9	18.7	257	> 10000	0.3	0.2	11.2	14.7	114	–
C[C@]1(O)CC[C@@H](Nc2cc(Nc3ccnc(N4CCC[C@@H](O)C4)n3)ncc2-c2ccn(C(F)F)n2)CC1 [Example 352, (R)-1-(4-((5-(1-(Difluoromethyl)-1H-pyrazol-3-yl)-4-(((1s,4S)-4-hydroxy-4-methylcyclohexyl)amino)pyridin-2-yl)amino)pyrimidin-2-yl)piperidin-3-ol]	–	–	–	–	–	–	–	–	–	–	IC50 (EGFR del19/T790M/C797S; [1]): 7.3 nM; IC50 (EGFR L858R/T790M/C797S; [2]): 4.8 nM; IC50 (EGFR del19/C797S; [3]): 653 nM; IC50 (EGFR L858R/C797S; [4]): 105 nM; IC50 (EGFR wildtype (WT); [5]): 457 nM
CC(C)Nc1cc(Nc2ccnc(-c3cnn(S(=O)(=O)C4CC4)c3)n2)ncc1-c1csc(C(C)(C)O)n1 [Example 92, 2-(4-(6-((2-(1-(Cyclopropylsulfonyl)-1H-pyrazol-4-yl)pyrimidin-4-yl)amino)-4-(isopropylamino)pyridin-3-yl)thiazol-2-yl)propan-2-ol]	2.6	7.7	10	103	> 10000	–	–	–	–	–	–
CN(C)C[C@H]1CC[C@@H](Nc2cc(Nc3ccnc(-c4cnn(S(=O)(=O)C5CC5)c4)n3)ncc2-c2cc3n(n2)CCCC3)CC1 [Example 277, N^2-(2-(1-(Cyclopropylsulfonyl)-1H-pyrazol-4-yl)pyrimidin-4-yl)-N^4-((1s,4s)-4-((dimethylamino)methyl)cyclohexyl)-5-(4,5,6,7-tetrahydropyrazolo[1,5-a]pyridin-2-yl)pyridine-2,4-diamine]	0.3	0.3	0.5	1.6	47.5	0.2	0.1	0.2	0.2	0.4	–
CC1(O)CCC(Nc2cc(Nc3ccnc(N4CC(CO)C(C)(C)C4)n3)ncc2-c2ccn(C(F)F)n2)CC1 (centres unmarked) [Example 347, (1s,4s)-4-((5-(1-(Difluoromethyl)-1H-pyrazol-3-yl)-2-((2-(4-(hydroxymethyl)-3,3-dimethylpyrrolidin-1-yl)pyrimidin-4-yl)amino)pyridin-4-yl)amino)-1-methylcyclohexan-1-ol]	–	–	–	–	–	–	–	–	–	–	IC50 (EGFR del19/T790M/C797S; IC50 del19/T790M/C797S, 100 μM ATP): 3.1 nM; IC50 (EGFR del19/T790M/C797S; [1]): 1.9 nM; IC50 (EGFR L858R/T790M/C797S; IC50 L858R/T790M/C797S, 100 μM ATP): 1.9 nM; IC50 (EGFR L858R/T790M/C797S; [2]): 0.7 nM; IC50 (EGFR del19/C797S; IC50 del19/C797S, 100 μM ATP): 329 nM; IC50 (EGFR del19/C797S; [3]): 99 nM; IC50 (EGFR L858R/C797S; IC50 L858R/C797S, 100 μM ATP): 449 nM; IC50 (EGFR L858R/C797S; [4]): 48.2 nM; IC50 (EGFR wildtype (WT); IC50 WT, 100 μM ATP): > 10000 nM; IC50 (EGFR wildtype (WT); [5]): 400 nM
COCn1cc(-c2nccc(Nc3cc(N[C@H]4CC[C@@](C)(O)CC4)c(-c4ccn(C(F)F)n4)cn3)n2)cn1 [Example 310, (1s,4s)-4-((5-(1-(Difluoromethyl)-1H-pyrazol-3-yl)-2-((2-(1-(methoxymethyl)-1H-pyrazol-4-yl)pyrimidin-4-yl)amino)pyridin-4-yl)amino)-1-methylcyclohexan-1-ol]	4	19	36.8	237	> 10000	–	–	0.1	–	–	–
C[C@]1(O)CC[C@@H](Nc2cc(Nc3ccnc(-c4cnn(CC(F)(F)C(F)F)c4)n3)ncc2-c2ccn(C(F)F)n2)CC1 [Example 322, (1s,4s)-4-((5-(1-(Difluoromethyl)-1H-pyrazol-3-yl)-2-((2-(1-(2,2,3,3-tetrafluoropropyl)-1H-pyrazol-4-yl)pyrimidin-4-yl)amino)pyridin-4-yl)amino)-1-methylcyclohexan-1-ol]	–	–	–	–	–	1.9	0.6	176	15.5	1520	–

Now from value to molecule, other results behind:

IC50 (EGFR del19/T790M/C797S; [6]) [nM]	IC50 (EGFR L858R/T790M/C797S; [7]) [nM]	IC50 (EGFR del19/C797S; [8]) [nM]	IC50 (EGFR L858R/C797S; [9]) [nM]	IC50 (EGFR wildtype (WT); [10]) [nM]	IC50 (EGFR del19/T790M/C797S; [11]) [nM]	IC50 (EGFR L858R/T790M/C797S; [12]) [nM]	IC50 (EGFR del19/C797S; [13]) [nM]	IC50 (EGFR L858R/C797S; [14]) [nM]	IC50 (EGFR wildtype (WT); [15]) [nM]	Compound	other results
0.7	1	3.8	12.4	5620	–	–	–	–	–	O=S(=O)(C1CC1)n1cc(-c2nccc(Nc3cc(N[C@@H]4CC[C@H](O)C4)c(-c4ccn(C(F)F)n4)cn3)n2)cn1 [Example 13, (1S,3R)-3-((2-((2-(1-(Cyclopropylsulfonyl)-1H-pyrazol-4-yl)pyrimidin-4-yl)amino)-5-(1-(difluoromethyl)-1H-pyrazol-3-yl)pyridin-4-yl)amino)cyclopentan-1-ol]	–
0.6	0.9	3.2	9.7	> 10000	–	–	–	–	–	O=S(=O)(C1CC1)n1cc(-c2nccc(Nc3cc(NC4CCC(O)C4)c(-c4ccn(C(F)F)n4)cn3)n2)cn1 (centres unmarked) [Example 15, 3-((2-((2-(1-(Cyclopropylsulfonyl)-1H-pyrazol-4-yl)pyrimidin-4-yl)amino)-5-(1-(difluoromethyl)-1H-pyrazol-3-yl)pyridin-4-yl)amino)cyclopentan-1-ol]	–
0.7	0.7	4.7	132	> 10000	0.5	0.3	3.3	6.6	37.8	Cn1ccc(-c2cnc(Nc3ccnc(-c4cnn(S(=O)(=O)C5CC5)c4)n3)cc2NC2CCCC(NCC(F)F)C2)n1 (centres unmarked) [Example 224, N^2-(2-(1-(Cyclopropylsulfonyl)-1H-pyrazol-4-yl)pyrimidin-4-yl)-N^4-(3-((2,2-difluoroethyl)amino)cyclohexyl)-5-(1-methyl-1H-pyrazol-3-yl)pyridine-2,4-diamine]	–
–	–	–	–	–	0.3	0.1	6.4	4.8	13.1	CN(C)C[C@H]1C[C@H](CNc2cc(Nc3ccnc(-c4cnn(S(=O)(=O)C5CC5)c4)n3)ncc2-c2ccn(C(F)F)n2)C1 [Example 209, N^2-(2-(1-(Cyclopropylsulfonyl)-1H-pyrazol-4-yl)pyrimidin-4-yl)-5-(1-(difluoromethyl)-1H-pyrazol-3-yl)-N^4-(((1r,3r)-3-((dimethylamino)methyl)cyclobutyl)methyl)pyridine-2,4-diamine]	–
–	–	–	–	–	0.3	0.1	4.6	3.6	10.1	CN(C)C[C@H]1C[C@H](CNc2cc(Nc3ccnc(-c4cnn(S(=O)(=O)C5CC5)c4)n3)ncc2-c2ccn(C)n2)C1 [Example 239, N^2-(2-(1-(Cyclopropylsulfonyl)-1H-pyrazol-4-yl)pyrimidin-4-yl)-N^4-(((1r,3r)-3-((dimethylamino)methyl)cyclobutyl)methyl)-5-(1-methyl-1H-pyrazol-3-yl)pyridine-2,4-diamine]	–
1.2	2.8	30	46.9	> 10000	–	–	–	–	–	O=S(=O)(C1CC1)n1cc(-c2nccc(Nc3cc(N[C@@H]4CC[C@@H](O)C4)c(-c4ccn(C(F)F)n4)cn3)n2)cn1 [Example 12, (1R,3R)-3-((2-((2-(1-(Cyclopropylsulfonyl)-1H-pyrazol-4-yl)pyrimidin-4-yl)amino)-5-(1-(difluoromethyl)-1H-pyrazol-3-yl)pyridin-4-yl)amino)cyclopentan-1-ol]	–
0.6	0.6	4.9	178	3600	0.8	0.4	2	7.1	7.5	CN(C)CC1(C)CCC(Nc2cc(Nc3ccnc(-c4cnn(S(=O)(=O)C5CC5)c4)n3)ncc2-c2ccn(C)n2)CC1 (centres unmarked) [Example 238, N^2-(2-(1-(Cyclopropylsulfonyl)-1H-pyrazol-4-yl)pyrimidin-4-yl)-N^4-(4-((dimethylamino)methyl)-4-methylcyclohexyl)-5-(1-methyl-1H-pyrazol-3-yl)pyridine-2,4-diamine]	–
